Reference: patent EP0263968A2, “Use of opiate antagonists in the manufacture of agents for the diagnosis and therapy of hypothalamic function disorders” (Ferring Arzneimittel GmbH, priority 1986, dated 1988)

How the values were obtained:
[1] = tested on: Patientinnen mit hypothalamischer Amenorrhoe; assay: Continuous naloxone infusion in patients with hypothalamic amenorrhoea; format: in vivo; settings: duration 6 to 52 hours
Text: Im Rahmen der vorliegenden Erfindung wurden Untersuchungen an Patientinnen mit hypothalamischer Amenorrhoe durchgeführt. Diese Untersuchungen haben überraschenderweise gezeigt, daß durch die Gabe von Opiat-Antagonisten eine Zunahme von Frequenz und Amplitude der LH und FSH Sekretion erreicht wird. Es kann daher davon ausgegangen werden, daß die endogene GnRH Sekretion durch Opiat-Antagonisten vermehrt wird.
Beispielsweise wurde Naloxon bei Patientinnen mit hypothalamischer Amenorrhoe infundiert. Die Infusionsdauer betrug 6 bis 52 Stunden.

Gonadotropine = assay: Diagnostic test: intravenous naloxone in secondary and primary amenorrhoea; format: in vivo
Text: Somit zeigt dieser diagnostische Test, daß bei den Fällen von sekundärer Amenorrhoe die Suppression der Gonadotropine im Serum auf einer erhöhten endogenen Opiataktivität beruht, die therapeutisch durch den längerfristigen Einsatz von Antagonisten gedämpft werden kann.

[2] = tested on: Patientinnen mit hypothalamischer Amenorrhoe; assay: Oral naltrexone treatment of patients with hypothalamic amenorrhoea (serial blood sampling, ultrasound); format: in vivo
Description: Die basale Gonadotropin Sekretion von Patientinnen, die an hypothalamischer Amenorrhoe litten, wurde durch Bestimmung von LH und FSH, Prolactin und Ovarien-Steroiden in Blutproben bewertet, die alle zehn Minuten während 24 Stunden entnommen wurden. Naltrexon wurde dann in einer Dosis von 50 mg pro Tag während 24 oder 28 Tagen verabreicht. 5 Tage und 14 Tage nach dem Beginn der Naltrexonverabreichung wurden wiederholte Blutproben entnommen. An den übrigen Tagen wurden täglich Blutproben entnommen und es wurde eine Ultraschalluntersuchung nach der Naltrexonverabreichung sowie einige Tage danach durchgeführt. Es wurden folgende Ergebnisse ermittelt:
Auf die Verabreichung von Naltrexon folgte eine Zunahme der Frequenz und der Amplitude der pulsatielen Gonadotropin Sekretion sowie eine Zunahme der mittleren LH und FSH Serumkonzentration sowie der Entwicklung der Gonaden-Steroid Sekretion und der Follikel, was durch Ultraschall festgestellt wurde.

[3] = tested on: Patientinnen mit normalem Zyklus; assay: Naltrexone administration to patients with normal cycle; format: in vivo
Text: Es ergibt sich daher die Möglichkeit, Opiat-Antagonisten zur Diagnose und Therapie hypothalamischer Funktionsstörungen einzusetzen, insbesondere bei solchen, bei denen zu vermuten ist, daß eine Hemmung der entsprechenden Partialfunktion durch vermehrt gebildete Endorphine verursacht ist.

[4] = oral administration possible; cited from earlier work
[5] = 50 mg per day for 24 or 28 days
[6] = patients with hypothalamic amenorrhoea

Structure (SMILES)	Frequenz und Amplitude der LH und FSH Sekretion [1]	Anstieg der Gonadotropine (Gonadotropine; some cases of primary amenorrhoea)	Anstieg der Gonadotropine (Gonadotropine; some cases of secondary amenorrhoea)	Frequenz und Amplitude der pulsatielen Gonadotropin Sekretion [2, 5]	mittlere LH und FSH Serumkonzentration [2, 5]	Patientinnen, die ovulierten ([2]; 50 mg per day for 24 or 28 days, 3 patients)	Menstruation nach Absetzen des Mittels ([2]; 50 mg per day for 24 or 28 days, after withdrawal)	Entwicklung der Gonaden-Steroid Sekretion und der Follikel ([2]; 50 mg per day for 24 or 28 days, follicles by ultrasound)	menstrueller Zyklus ([2]; oral, patients with hypothalamic amenorrhoea)	Gonadotropin-Sekretion [2, 6]	Ovulation, Bildung eines Corpus luteum [2, 6]	Ablauf des Zyklus [3]	Sekretion der gonadotropen Hormone [3]	Verweildauer im Plasma [4]
C=CCN1CC[C@]23c4c5ccc(O)c4OC2C(=O)CC[C@@]3(O)[C@H]1C5 (some centres unmarked) [Naloxon, 17-Allyl-4,5-epoxy-3,14-dihydroxymorphinan-6-on]	deutliche Zunahme	nicht oder nur in wesentlich geringerem Ausmaß	deutlichen Anstieg											
O=C1CC[C@@]2(O)[C@H]3Cc4ccc(O)c5c4[C@@]2(CCN3CC2CC2)C1O5 (some centres unmarked) [Naltrexon, 17-(Cyclopropylmethyl)-4,5-epoxy-3,14-dihydroxymorphinan-6-on]				Zunahme	Zunahme	Eine von 3	Sämtliche Patientinnen menstruierten	Zunahme	Normalisierung	Normalisierung	zur Ovulation und zur Bildung eines Corpus luteum	keinen Einfluß	keinen Einfluß	lange Verweildauer im Plasma
